Assay: xn = mol fraction of the nth substance listed
Conditions: 100 kPa, Liquid; for viscosity: Concentric cylinders viscometry; for mass density: Vibrating tube method

CCCCn1cc[n+](C)c1.N#CN=C=[N-] [1-butyl-3-methylimidazolium dicyanamide] + CCCC[n+]1ccn(C)c1.O=S(=O)([N-]S(=O)(=O)C(F)(F)F)C(F)(F)F
Conditions	mass density, x2 = 0 [kg/m3]	mass density, x2 = 0.251 [kg/m3]	mass density, x2 = 0.457 [kg/m3]	mass density, x2 = 0.749 [kg/m3]	viscosity, x2 = 0 [mPa·s]	viscosity, x2 = 0.251 [mPa·s]	viscosity, x2 = 0.457 [mPa·s]	viscosity, x2 = 0.749 [mPa·s]
283.15 K	1070	1194.3	1280.8	1381.8	58.35	72.33	82.5	95.81
288.15 K	1066.7	1190.5	1276.6	1377.2	45.91	56.47	64.11	73.99
293.15 K	1063.4	1186.7	1272.5	1372.7	36.83	44.98	50.83	58.31
298.15 K	1060.2	1183	1268.5	1368.1	30.08	36.45	41.02	46.82
303.15 K	1057	1179.3	1264.4	1363.6	24.94	30.02	33.66	38.18
308.15 K	1053.8	1175.7	1260.4	1359.2	20.98	25.08	28.01	31.61
313.15 K	1050.6	1172	1256.4	1354.7	17.86	21.22	23.6	26.5
318.15 K	1047.5	1168.4	1252.4	1350.3	15.38	18.16	20.12	22.48
323.15 K	1044.4	1164.9	1248.5	1345.9	13.38	15.7	17.33	19.27
328.15 K	1041.3	1161.3	1244.6	1341.5	11.74	13.69	15.06	16.68
333.15 K	1038.2	1157.8	1240.7	1337.2	10.38	12.05	13.27	14.56
338.15 K	1035.2	1154.3	1236.8	1332.9	9.251	10.68	11.72	12.82
343.15 K	1032.1	1150.8	1233	1328.6	8.298	9.53	10.43	11.36
348.15 K	1029.1	1147.3	1229.2	1324.3	7.488	8.56	9.335	10.14
353.15 K	1026.1	1143.8	1225.4	1320	6.794	7.728	8.408	9.098
358.15 K	1023.2	1140.4	1221.6	1315.8	6.196	7.016	7.615	8.211
363.15 K	1020.3	1137	1217.9	1311.6	5.677	6.403	6.932	7.449

CC(=O)[O-].CCCCn1cc[n+](C)c1 [1-butyl-3-methylimidazolium acetate] + CCCC[n+]1ccn(C)c1.O=S(=O)([N-]S(=O)(=O)C(F)(F)F)C(F)(F)F
Conditions	mass density, x2 = 0 [kg/m3]	mass density, x2 = 0.25 [kg/m3]	mass density, x2 = 0.498 [kg/m3]	mass density, x2 = 0.749 [kg/m3]	viscosity, x2 = 0 [mPa·s]	viscosity, x2 = 0.25 [mPa·s]	viscosity, x2 = 0.498 [mPa·s]	viscosity, x2 = 0.749 [mPa·s]
283.15 K	1062.7	1193.2	1296.5	1381.4	1013.4	577.38	310.72	175.1
288.15 K	1059.4	1189.4	1292.2	1376.8	645.6	385.58	220.24	129.87
293.15 K	1056	1185.6	1288	1372.3	421.35	265.43	159.18	101.85
298.15 K	1052.8	1181.9	1283.8	1367.8	292.57	189.58	119.72	76.32
303.15 K	1049.7	1178.3	1279.7	1363.3	206.68	138.72	91.38	60.27
308.15 K	1046.6	1174.7	1275.7	1358.8	150.08	104	71.14	48.44
313.15 K	1043.5	1171.1	1271.6	1354.3	110.79	79.57	56.47	40.34
318.15 K	1040.5	1167.5	1267.5	1349.9	85.03	62.28	45.44	32.7
323.15 K	1037.5	1163.9	1263.5	1345.4	66.07	49.57	37.16	27.36
328.15 K	1034.5	1160.3	1259.4	1341	52.29	40.09	30.8	23.18
333.15 K	1031.5	1156.8	1255.4	1336.6	42.29	33.14	26.09	20.11
338.15 K	1028.5	1153.2	1251.4	1332.3	34.38	27.38	21.93	17.14
343.15 K	1025.6	1149.7	1247.5	1327.9	28.48	23.05	18.79	14.96
348.15 K	1022.6	1146.1	1243.5	1323.6	23.88	19.63	16.25	13.13
353.15 K	1019.7	1142.6	1239.6	1319.4	20.63	17.21	14.49	11.89
358.15 K	1016.7	1139.1	1235.7	1315.1	17.35	14.64	12.45	10.35
363.15 K	1013.9	1135.6	1231.8	1310.9	15	12.81	11.02	9.272

CCCCn1cc[n+](C)c1.F[P-](F)(F)(F)(F)F [1-butyl-3-methylimidazolium hexafluorophosphate] + CCCC[n+]1ccn(C)c1.O=S(=O)([N-]S(=O)(=O)C(F)(F)F)C(F)(F)F
Conditions	mass density, x2 = 0 [kg/m3]	mass density, x2 = 0.25 [kg/m3]	mass density, x2 = 0.5 [kg/m3]	mass density, x2 = 0.748 [kg/m3]	viscosity, x2 = 0 [mPa·s]	viscosity, x2 = 0.25 [mPa·s]	viscosity, x2 = 0.5 [mPa·s]	viscosity, x2 = 0.748 [mPa·s]
283.15 K	1379.9	1402.5	1421.1	1437.4	794.33	360.25	221.31	148.25
288.15 K	1376.5	1398.3	1417.2	1433.1	557.27	264.71	166.04	112.57
293.15 K	1372	1393.8	1412.6	1428.4	393.86	196.39	126.16	87.23
298.15 K	1367.6	1389.4	1408	1423.7	285.02	148.96	97.74	68.88
303.15 K	1363.4	1385	1403.5	1419	210.93	115.08	77.09	55.3
308.15 K	1359.2	1380.7	1399	1414.3	159.46	90.44	61.82	45.08
313.15 K	1355.1	1376.4	1394.5	1409.7	122.78	72.18	50.31	37.25
318.15 K	1351	1372.1	1390	1405.1	96.28	58.45	41.52	31.17
323.15 K	1347	1367.9	1385.6	1400.5	76.72	47.96	34.68	26.38
328.15 K	1342.9	1363.6	1381.2	1395.9	62.04	39.84	29.3	22.56
333.15 K	1338.9	1359.4	1376.7	1391.3	50.85	33.47	25	19.47
338.15 K	1334.9	1355.2	1372.3	1386.8	42.2	28.39	21.53	16.96
343.15 K	1330.9	1351	1368	1382.3	35.43	24.3	18.7	14.88
348.15 K	1326.9	1346.9	1363.6	1377.9	30.04	20.99	16.38	13.15
353.15 K	1323	1342.7	1359.3	1373.4	25.72	18.29	14.44	11.7
358.15 K	1319	1338.6	1355.1	1369	22.22	16.04	12.82	10.47
363.15 K	1315.2	1334.6	1350.8	1364.6	19.36	14.17	11.46	9.428

From the NIST ThermoML archive (doi:10.1021/acs.jced.6b00178)
